From patent publication US20240140999A1, “STABILIZED PEPTIDE-MEDIATED TARGETED PROTEIN DEGRADATION” (Dana-Farber Cancer Institute, Inc., priority 2017, published 2024)
Entries after “also recorded” stand apart in the source; their conditions may differ. Each block holds one substance with its values, some of them ahead of it.

Assays:
MCL-1 = molecular target: T1, MCL-1 (Homo sapiens, UniProt Q07820); assay: MCL-1 levels by western blot in A375P melanoma cells; assay type: cell-based; conditions: 10 μM, western blot over time
T1 construct: monitoring of cellular MCL-1 levels by western blot of lysates; endogenous in cells; host or cells: A375P melanoma cells
From the text: BIM-C-terminal degron is #IWIAQELRXIGDXFNAYYARR% (SEQ ID NO: 134; #=N-term Ac; %=Lys-degron (see FIG. 3 for the structure of Lys-degron)).
A stapled peptide helix-degron chimeric peptide (FIG. 1) modeled after the pro-apoptotic BIM BH3 domain with an incorporated degron (e.g., Lys-degron, FIG. 2-4) was applied to A375P melanoma cells that express such anti-apoptotic BCL-2 family proteins as MCL-1, which promotes cancer cell survival and chemoresistance.

Cop1 [1] = molecular target: T2, Cop1 (Homo sapiens, UniProt Q8NHY2); conditions: reported value (Uljon et al.); read-out: binding affinity for Cop1; cited from earlier work
T2 sequence (Q8NHY2 whole entry): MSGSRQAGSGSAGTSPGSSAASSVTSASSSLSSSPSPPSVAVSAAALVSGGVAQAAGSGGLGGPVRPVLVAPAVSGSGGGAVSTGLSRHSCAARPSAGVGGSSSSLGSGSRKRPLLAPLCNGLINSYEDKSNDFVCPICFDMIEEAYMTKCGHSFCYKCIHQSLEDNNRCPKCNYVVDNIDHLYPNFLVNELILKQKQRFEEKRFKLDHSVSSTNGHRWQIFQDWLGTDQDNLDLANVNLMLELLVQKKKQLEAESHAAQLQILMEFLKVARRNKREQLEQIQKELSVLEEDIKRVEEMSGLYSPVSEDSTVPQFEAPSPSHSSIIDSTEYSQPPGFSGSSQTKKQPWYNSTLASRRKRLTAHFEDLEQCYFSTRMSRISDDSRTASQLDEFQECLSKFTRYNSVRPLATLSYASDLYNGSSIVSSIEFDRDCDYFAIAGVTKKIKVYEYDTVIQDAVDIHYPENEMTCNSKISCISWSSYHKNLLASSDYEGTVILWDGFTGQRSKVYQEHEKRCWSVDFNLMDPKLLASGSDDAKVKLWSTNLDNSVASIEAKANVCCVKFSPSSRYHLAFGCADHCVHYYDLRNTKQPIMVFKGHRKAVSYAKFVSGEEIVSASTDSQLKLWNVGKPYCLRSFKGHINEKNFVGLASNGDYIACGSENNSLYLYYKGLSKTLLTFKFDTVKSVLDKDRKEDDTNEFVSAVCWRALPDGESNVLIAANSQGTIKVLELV

SJSA-1 cells = assay: Cell viability of SJSA-1 cells (Cell Titer Glo); assay type: cell-based; conditions: thalidomide degron chimeras with distinct linkers, FIG. 12
Protocol: Certain compositions bearing different linkers show no cellular activity (right). Linker1-5 are as depicted in FIG. 5.
A stapled peptide degron chimera modeled after the transactivation domain helix of p53 (ATSP-7041) coupled to a thalidomide degron was applied to cultured cancer cells (SJSA-1, SJSA-X) and MDM2 protein levels were monitored by western blot and compared to that in cells treated with ATSP-7041 alone. The experiment was repeated and cell viability was measured by Cell Titer Glo assay. […] In addition, each of the stapled peptide degron chimeras impaired cancer cell viability in a dose-responsive fashion (FIG. 12). The composition of the linker influenced the presence (FIG. 12, left) or absence (FIG. 12, right) of biological activity.

Cop1 [2] = molecular target: T2, Cop1; assay: Co-immunoprecipitation of Myc-tagged MDM2 p60 mutant constructs with Cop1 from 293T cells; assay type: cell-based; design: Cop1-expressing human embryonic kidney 293T cells; endogenous in cells; host or cells: 293T (human embryonic kidney)
From the text: Sequences: GFDVPD (SEQ ID NO:26); GFDAAD (SEQ ID NO:27); GNDVPD (SEQ ID NO:28); PQTVPD (SEQ ID NO:29); and DQIVPD (SEQ ID NO:30).
(§1) (1) Direct genetic modification: Replacement of natural protein residues in structurally disordered regions with derivatives of the sequence DQIVPEY (SEQ ID NO: 25) can cause the chimera proteins to be degraded by Cop1. For example, replacement of the C-terminal sequence GFDVPD (SEQ ID NO: 26) of the p60 isoform of the protein HDM2 with the Trib1-derived sequence DQIVPD (SEQ ID NO: 30) causes Cop1-mediated degradation of the mutant protein when exogenously expressed in Cop1-expressing human embryonic kidney 293T cells (FIG. 13).

Cop1 [3] = molecular target: T2, Cop1; assay: Cop1-mediated degradation of Myc-tagged MDM2 p60 chimera constructs expressed in 293T cells; assay type: cell-based; design: Cop1-expressing human embryonic kidney 293T cells; endogenous in cells; host or cells: 293T (human embryonic kidney); conditions: native GFDVPD replaced by the sequence; Cop1-expressing 293T cells
From the text: The native peptide sequence GFDVPD (SEQ ID NO: 26) within MDM2 is replaced by the sequences indicated (lane 3: SEQ ID NO:27; lane 4: SEQ ID NO:28; lane 5: SEQ ID NO:29; and lane 6: SEQ ID NO:30). […] Lower panel: Cop1 loading control.
as §1

Substance: #IWIAQELRXIGDXFNAYYARR% [BIM-C-terminal degron, stapled BIM BH3 peptide; #=N-term Ac; %=Lys-degron (thalidomide on C-terminal lysine side chain)]
- cellular MCL-1 protein level (MCL-1): time-dependent decrease in MCL-1 protein; also recorded: induces the degradation of MCL-1

Substance: DQIVPEY
- Kd (Cop1 [1]): 250 ± 40 nM

Substance: LTF8EYWAQLX%AA [5-L5]
- cell viability / cytotoxic activity (SJSA-1 cells): most potent cytotoxic activity

- binding of the Myc-tagged MDM2 p60 mutant construct to Cop1 (Cop1 [2]): direct binding
Substance: DQIVPD
- Cop1-mediated degradation of the MDM2 p60 chimera protein (Cop1 [3]): causes destruction of the p60 chimera protein by the Cop1 protein
